Data reported in PubChem BioAssay AID2060499 (Molecular Pharmacology Branch, DTP, NCI, 2025).

Tested on: 777334-354-R2-J4-PDC tumor spheroids with HUVEC/MSC, viability
Experiment: Anticancer human tumor 777334-354-R2-J4-PDC patient-derived pancreatic adenocarcinoma cell line growth inhibition [GQUAD]
Conditions: for IC50: curve of first compound; for viability, T/C: stronger effect = lower value; active = viability on the fitted dose curve at most 10% of control; inactive = the rest
Outline: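 Viability of tumor cells grown as complex spheroids with endothelial and stromal cells, exposed to drug combinations. Top concentration at or near clinical Cmax (else 10 microM), diluted in half-log increments.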

[1] = second compound 0.0316 µM, first compound 0.0316 µM
[2] = second compound 0.0316 µM, first compound 0.1 µM
[3] = second compound 0.0316 µM, first compound 0.316 µM
[4] = second compound 0.0316 µM, first compound 1 µM
[5] = second compound 0.0316 µM, first compound 3.16 µM
[6] = second compound 0.0316 µM, first compound 10 µM
[7] = second compound 0.1 µM, first compound 0.0316 µM
[8] = second compound 0.1 µM, first compound 0.1 µM
[9] = second compound 0.1 µM, first compound 0.316 µM
[10] = second compound 0.1 µM, first compound 1 µM
[11] = second compound 0.1 µM, first compound 3.16 µM
[12] = second compound 0.1 µM, first compound 10 µM
[13] = second compound 0.316 µM, first compound 0.0316 µM
[14] = second compound 0.316 µM, first compound 0.1 µM
[15] = second compound 0.316 µM, first compound 0.316 µM
[16] = second compound 0.316 µM, first compound 1 µM
[17] = second compound 0.316 µM, first compound 3.16 µM
[18] = second compound 0.316 µM, first compound 10 µM
[19] = second compound 1 µM, first compound 0.0316 µM
[20] = second compound 1 µM, first compound 0.1 µM
[21] = second compound 1 µM, first compound 0.316 µM
[22] = second compound 1 µM, first compound 1 µM
[23] = second compound 1 µM, first compound 3.16 µM
[24] = second compound 1 µM, first compound 10 µM
[25] = second compound 3.16 µM, first compound 0.0316 µM
[26] = second compound 3.16 µM, first compound 0.1 µM
[27] = second compound 3.16 µM, first compound 0.316 µM
[28] = second compound 3.16 µM, first compound 1 µM
[29] = second compound 3.16 µM, first compound 3.16 µM
[30] = second compound 3.16 µM, first compound 10 µM
[31] = second compound 10 µM, first compound 0.0316 µM
[32] = second compound 10 µM, first compound 0.1 µM
[33] = second compound 10 µM, first compound 0.316 µM
[34] = second compound 10 µM, first compound 1 µM
[35] = second compound 10 µM, first compound 3.16 µM
[36] = second compound 10 µM, first compound 10 µM
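Note: spheroids exposed to compounds for 7 days before readout.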

C=CCn1c(=O)c2cnc(Nc3ccc(N4CCN(C)CC4)cc3)nc2n1-c1cccc(C(C)(C)O)n1 + CN(C)c1ccc(Nc2c3ccc(NC(=O)CCN4CCCC4)cc3nc3cc(NC(=O)CCN4CCCC4)ccc23)cc1
793 nM: IC50 (second compound 1 µM)
inactive: viability, T/C [1] 101% | viability, T/C [2] 94.8% | viability, T/C [3] 81.6% | viability, T/C [4] 38.8% | viability, T/C [5] 36.5% | viability, T/C [6] 37.6% | viability, T/C [7] 103% | viability, T/C [8] 91.1% | viability, T/C [9] 84.6% | viability, T/C [10] 46.1% | viability, T/C [11] 36.8% | viability, T/C [12] 35.9% | viability, T/C [13] 105% | viability, T/C [14] 89.8% | viability, T/C [15] 77.2% | viability, T/C [16] 45.9% | viability, T/C [17] 38.4% | viability, T/C [18] 33.9% | viability, T/C [19] 87% | viability, T/C [20] 82.5% | viability, T/C [21] 78% | viability, T/C [22] 42.8% | viability, T/C [23] 38.9% | viability, T/C [24] 35.2% | viability, T/C [25] 92.9% | viability, T/C [26] 81.4% | viability, T/C [27] 68% | viability, T/C [28] 41% | viability, T/C [29] 39.2% | viability, T/C [30] 33.2% | viability, T/C [31] 90.1% | viability, T/C [32] 81.7% | viability, T/C [33] 59.3% | viability, T/C [34] 39.8% | viability, T/C [35] 34.1% | viability, T/C [36] 25.1%
732 nM: IC50 (second compound 3.16 µM)
746 nM: IC50 (second compound 0.0316 µM)
907 nM: IC50 (second compound 0.1 µM)
576 nM: IC50 (second compound 10 µM)
961 nM: IC50 (second compound 0.316 µM)

CC(C)(O)C1CCC(Nc2ccc3ncc(-c4cccc(C(F)(F)F)c4)n3n2)CC1 (centres undefined) + CN(C)c1ccc(Nc2c3ccc(NC(=O)CCN4CCCC4)cc3nc3cc(NC(=O)CCN4CCCC4)ccc23)cc1
inactive: viability, T/C [1] 99.9% | viability, T/C [2] 90.2% | viability, T/C [3] 90.2% | viability, T/C [4] 43.4% | viability, T/C [5] 32.3% | viability, T/C [6] 35.5% | viability, T/C [7] 98.2% | viability, T/C [8] 86.5% | viability, T/C [9] 81.4% | viability, T/C [10] 47.4% | viability, T/C [11] 31.3% | viability, T/C [12] 31.5% | viability, T/C [13] 89% | viability, T/C [14] 68.1% | viability, T/C [15] 79.7% | viability, T/C [16] 55% | viability, T/C [17] 36.6% | viability, T/C [18] 33.9% | viability, T/C [19] 78.9% | viability, T/C [20] 89.9% | viability, T/C [21] 81.4% | viability, T/C [22] 56.3% | viability, T/C [23] 29.6% | viability, T/C [24] 33.3% | viability, T/C [25] 76.8% | viability, T/C [26] 82.3% | viability, T/C [27] 80.5% | viability, T/C [28] 51.2% | viability, T/C [29] 27.9% | viability, T/C [30] 27% | viability, T/C [31] 83.9% | viability, T/C [32] 77.2% | viability, T/C [33] 67.8% | viability, T/C [34] 41.6% | viability, T/C [35] 19.1% | viability, T/C [36] 19.4%
669 nM: IC50 (second compound 10 µM)
1060 nM: IC50 (second compound 3.16 µM)
1340 nM: IC50 (second compound 0.316 µM) | IC50 (second compound 1 µM)
849 nM: IC50 (second compound 0.0316 µM)
921 nM: IC50 (second compound 0.1 µM)
